Experimental data published in ChEMBL document CHEMBL4308854, “Novel indole-thiazolidinone conjugates: Design, synthesis and whole-cell phenotypic evaluation as a novel class of antimicrobial agents” (Eur J Med Chem, 2018).
≈ marks a conversion by molar mass, not a printed value. Calls of active or inactive are those of the source. The rule behind the calls is not given here.

Assays:
Assay type in all cases: functional
[1] = tested on: Mycobacterium tuberculosis; test: Antitubercular activity against Mycobacterium tuberculosis RCMB 010126 clinical isolate after 4 days by microplate alamar blue assay; conditions: for MIC: Mycobacterium tuberculosis, RCMB 010126, 96 h
Pseudomonas aeruginosa [2] = test: Antibacterial activity against Pseudomonas aeruginosa RCMB 010043 after 24 hrs by serial dilution method; conditions: RCMB 010043, 24 h
Candida albicans [3] = test: Antifungal activity against Candida albicans RCMB 05036 assessed as diameter of zone inhibition after 48 hrs by agar well diffusion assay
Escherichia coli [4] = test: Antibacterial activity against Escherichia coli RCMB 010052 after 24 hrs by serial dilution method; conditions: RCMB 010052, 24 h
Escherichia coli [5] = test: Antibacterial activity against Escherichia coli RCMB 010052 assessed as diameter of zone inhibition after 24 hrs by agar well diffusion assay
Aspergillus fumigatus [6] = test: Antifungal activity against Aspergillus fumigatus RCMB 02568 after 24 hrs by serial dilution method; conditions: RCMB 02568, 24 h
Staphylococcus aureus [7] = test: Antibacterial activity against Staphylococcus aureus RCMB 010028 assessed as diameter of zone inhibition after 24 hrs by agar well diffusion assay
Aspergillus fumigatus [8] = test: Antifungal activity against Aspergillus fumigatus RCMB 02568 assessed as diameter of zone inhibition after 48 hrs by agar well diffusion assay
Pseudomonas aeruginosa [9] = test: Antibacterial activity against Pseudomonas aeruginosa RCMB 010043 assessed as diameter of zone inhibition after 24 hrs by agar well diffusion assay
Staphylococcus aureus [10] = test: Antibacterial activity against Staphylococcus aureus RCMB 010028 after 24 hrs by serial dilution method; conditions: RCMB 010028, 24 h
Candida albicans [11] = test: Antifungal activity against Candida albicans RCMB 05036 after 24 hrs by serial dilution method; conditions: RCMB 05036, 24 h
Pseudomonas aeruginosa [12] = test: Potency index, ratio of ciprofloxacin MIC to compound MIC for Pseudomonas aeruginosa RCMB 010043
Escherichia coli [13] = test: Potency index, ratio of ciprofloxacin MIC to compound MIC for Escherichia coli RCMB 010052

Row | SMILES | inhibition (INH) [1] | MIC [1] | MIC (Pseudomonas aeruginosa [2]) | diameter of the inhibition zone (DIZ) (Candida albicans [3]) | MIC (Escherichia coli [4]) | diameter of the inhibition zone (DIZ) (Escherichia coli [5]) | MIC (Aspergillus fumigatus [6]) | diameter of the inhibition zone (DIZ) (Staphylococcus aureus [7]) | diameter of the inhibition zone (DIZ) (Aspergillus fumigatus [8]) | diameter of the inhibition zone (DIZ) (Pseudomonas aeruginosa [9]) | MIC (Staphylococcus aureus [10]) | MIC (Candida albicans [11]) | Ratio (Pseudomonas aeruginosa [12]) | Ratio (Escherichia coli [13]) | inhibition [1]
1 | CCOC(=O)c1sc(/N=C2\NC(=O)/C(=C3/C(=O)Nc4ccc(F)cc43)S2)nc1C | 62.15% | 1.56 µg/mL (≈ 3.61 µM) | 3.9 µg/mL (≈ 9.02 µM) | 22.1 mm | 1.95 µg/mL (≈ 4.51 µM) | 21.5 mm | 1.95 µg/mL (≈ 4.51 µM) | 20.5 mm | 21.3 mm | 20.2 mm | 3.9 µg/mL (≈ 9.02 µM) | 1.95 µg/mL (≈ 4.51 µM) |  |  | 
2 | COc1ccc2c(c1)/C(=C1/S/C(=N/c3nc(C)c(C(C)=O)s3)NC1=O)C(=O)N2 | 64.35% | 1.56 µg/mL (≈ 3.76 µM) | 1.95 µg/mL (≈ 4.7 µM) | 21.3 mm | 1.95 µg/mL (≈ 4.7 µM) | 22.4 mm | 1.95 µg/mL (≈ 4.7 µM) | 21.7 mm | 20.8 mm | 21.4 mm | 1.95 µg/mL (≈ 4.7 µM) | 1.95 µg/mL (≈ 4.7 µM) | 2 |  | 
3 | CC(=O)c1sc(/N=C2\NC(=O)/C(=C/c3c[nH]c4ccccc34)S2)nc1C | 52.41% | 3.12 µg/mL (≈ 8.16 µM) | 7.81 µg/mL (≈ 20.4 µM) | 20.9 mm | 1.95 µg/mL (≈ 5.1 µM) | 21.3 mm | 3.9 µg/mL (≈ 10.2 µM) | 18.9 mm | 20.3 mm | 18.5 mm | 7.81 µg/mL (≈ 20.4 µM) | 1.95 µg/mL (≈ 5.1 µM) |  |  | 
4 | CC(=O)c1sc(/N=C2\NC(=O)/C(=C3/C(=O)Nc4ccc(F)cc43)S2)nc1C | 43.26% | 12.5 µg/mL (≈ 31 µM) |  | 19.1 mm |  | 20.6 mm |  | 18.6 mm | 18.1 mm | 19.1 mm |  |  |  |  | 
5 | CC(=O)c1sc(/N=C2\NC(=O)/C(=C3/C(=O)Nc4ccc(OC(F)(F)F)cc43)S2)nc1C | 41.58% | 12.5 µg/mL (≈ 26.6 µM) |  | 16.2 mm |  | 14.2 mm |  | 14.3 mm | 15.6 mm | 13.9 mm |  |  |  |  | 
6 | CC(=O)c1sc(/N=C2\NC(=O)/C(=C3/C(=O)N(Cc4ccccc4)c4ccccc43)S2)nc1C | 58.34% | 1.56 µg/mL (≈ 3.29 µM) | 3.9 µg/mL (≈ 8.22 µM) | 22.5 mm | 0.98 µg/mL (≈ 2.07 µM) | 23.4 mm | 1.95 µg/mL (≈ 4.11 µM) | 21.2 mm | 21.7 mm | 20.3 mm | 1.95 µg/mL (≈ 4.11 µM) | 0.98 µg/mL (≈ 2.07 µM) |  | 2 | 
7 | CCOC(=O)c1sc(/N=C2\NC(=O)/C(=C/c3cn(Cc4ccccc4)c4ccccc34)S2)nc1C |  |  |  | inactive |  | inactive |  | inactive | inactive | inactive |  |  |  |  | inactive
8 | CCOC(=O)c1sc(/N=C2\NC(=O)/C(=C3/C(=O)N(C)c4ccc(Cl)cc43)S2)nc1C | 68.31% | 0.78 µg/mL (≈ 1.68 µM) | 1.95 µg/mL (≈ 4.21 µM) | 21.3 mm | 0.98 µg/mL (≈ 2.12 µM) | 22.3 mm | 3.9 µg/mL (≈ 8.42 µM) | 21.4 mm | 20.8 mm | 21.5 mm | 1.95 µg/mL (≈ 4.21 µM) | 1.95 µg/mL (≈ 4.21 µM) | 2 | 2 | 
9 | CCOC(=O)c1sc(/N=C2\NC(=O)/C(=C/c3c[nH]c4ccccc34)S2)nc1C | 46.35% | 6.24 µg/mL (≈ 15.1 µM) | 7.81 µg/mL (≈ 18.9 µM) | 20.9 mm | 1.95 µg/mL (≈ 4.73 µM) | 21.3 mm | 3.9 µg/mL (≈ 9.45 µM) | 18.9 mm | 20.3 mm | 18.5 mm | 3.9 µg/mL (≈ 9.45 µM) | 1.95 µg/mL (≈ 4.73 µM) |  |  | 
10 | CCOC(=O)c1sc(/N=C2\NC(=O)/C(=C3/C(=O)Nc4ccc(Br)cc43)S2)nc1C | 86.31% | 1.56 µg/mL (≈ 3.16 µM) | 3.9 µg/mL (≈ 7.9 µM) | 21.3 mm | 1.95 µg/mL (≈ 3.95 µM) | 21.1 mm | 3.9 µg/mL (≈ 7.9 µM) | 20.1 mm | 20.6 mm | 19.4 mm | 3.9 µg/mL (≈ 7.9 µM) | 1.95 µg/mL (≈ 3.95 µM) |  |  | 
11 | CC(=O)c1sc(/N=C2\NC(=O)/C(=C3/C(=O)Nc4ccccc43)S2)nc1C | 63.24% | 1.56 µg/mL (≈ 4.06 µM) | 3.9 µg/mL (≈ 10.1 µM) | 22.7 mm | 0.98 µg/mL (≈ 2.55 µM) | 22.8 mm | 1.95 µg/mL (≈ 5.07 µM) | 20.3 mm | 21.5 mm | 19.9 mm | 3.9 µg/mL (≈ 10.1 µM) | 0.98 µg/mL (≈ 2.55 µM) |  | 2 | 
12 | NNC(=O)c1ccncc1 [ISONIAZID] |  | 0.78 µg/mL (≈ 5.69 µM) |  |  |  |  |  |  |  |  |  |  |  |  | 
13 | CCOC(=O)c1sc(/N=C2\NC(=O)/C(=C/c3cn(C)c4ccccc34)S2)nc1C |  |  |  | inactive |  | inactive |  | inactive | inactive | inactive |  |  |  |  | inactive
14 | C[C@@H]1[C@H](O)[C@@H](C)/C=C/C=C/C=C/C=C/C=C/C=C/C=C/[C@H](O[C@@H]2O[C@H](C)[C@@H](O)[C@H](N)[C@@H]2O)C[C@@H]2O[C@](O)(C[C@@H](O)C[C@@H](O)[C@H](O)CC[C@@H](O)C[C@@H](O)CC(=O)O[C@H]1C)C[C@H](O)[C@H]2C(=O)O [AMPHOTERICIN B] |  |  |  | 25.4 mm |  |  | 1.95 µg/mL (≈ 2.11 µM) |  | 23.7 mm |  |  | 0.98 µg/mL (≈ 1.06 µM) |  |  | 
15 | CC(=O)c1sc(/N=C2\NC(=O)/C(=C/c3cn(C)c4ccccc34)S2)nc1C | 34.32% |  |  | 16.9 mm |  | 15.9 mm |  | 15.3 mm | 16.2 mm | 14.2 mm |  |  |  |  | 
16 | CC(=O)c1sc(/N=C2\NC(=O)/C(=C/c3cn(Cc4ccccc4)c4ccccc34)S2)nc1C | 56.35% | 1.56 µg/mL (≈ 3.3 µM) | 15.6 µg/mL (≈ 33.1 µM) | 16.2 mm | 3.9 µg/mL (≈ 8.25 µM) | 20.3 mm | 3.9 µg/mL (≈ 8.25 µM) | 20.6 mm | 20.3 mm | 17.3 mm | 1.95 µg/mL (≈ 4.13 µM) | 31.2 µg/mL (≈ 66.1 µM) |  |  | 
17 | CC(=O)c1sc(/N=C2\NC(=O)/C(=C3/C(=O)Nc4ccc(Br)cc43)S2)nc1C | 43.21% | 12.5 µg/mL (≈ 26.9 µM) |  | 18.8 mm |  | 20.4 mm |  | 18.5 mm | 17.6 mm | 18.6 mm |  |  |  |  | 
